Measured values taken from patent publication US20260223846A1, “PEPTIDE IN COMBINATION WITH FUNGICIDE COMPOSITIONS FOR FUNGAL CONTROL AND RELATED METHODS” (priority 2023, published 2026).
Like-named read-outs stand apart in the source and are kept apart here. Where no end group is shown, it is not given here.

Key:
Fusarium proliferatum = assay: Co-incubation (oCelloScope) assay, F. proliferatum conidial germination; assay type: cell-based
Botrytis (Strain B05.10) = assay: Botrytis inhibition assay (resazurin assay); assay type: cell-based; conditions: for inhibition at 1 µM: tested alone at 1 μM
[1] = test system: Pseudoperonospora cubensis; assay: Pseudoperonospora cubensis (cucurbit downy mildew) leaf disk assay; assay type: in vivo; conditions: for Summary of CGI factor spectrum of activity: Downy Mildew
[2] = test system: Fusarium graminearum (Gibberella zeae); assay type: cell-based; conditions: for Inhibition: 50 micromolar; for Summary of CGI factor spectrum of activity: Fusarium graminearum
[3] = test system: Fusarium oxysporum f. sp. lycopersici (Saccardo) Snyder et Hansen CBS 167.30; assay: Resazurin plate co-incubation assay, F. oxysporum; assay type: cell-based; conditions: for Inhibition: 50 micromolar; for Summary of CGI factor spectrum of activity: Fusarium oxysporum
Botrytis cinerea b05.10 = assay type: cell-based
[4] = tested alone at 0.2 ug/ml, 24 hours at 23° C.
[5] = tested alone at 2 ug/ml, 24 hours at 23° C.
[6] = read-out: Percent Inhibition EXP23002594
[7] = read-out: Percent Inhibition EXP23002662
[8] = tested alone at 5 uM, 24 hours at 23° C.
[9] = tested alone at 0.02 ug/ml, 24 hours at 23° C.
[10] = tested alone at 0.5 uM, 24 hours at 23° C.
[11] = tested alone at 1 uM, 24 hours at 23° C.
[12] = tested alone at 0.25 uM, 24 hours at 23° C.
[13] = 10 micromolar, 24 hours at 20° C.
[14] = 100 micromolar, 24 hours at 20° C.
[15] = Botrytis cinerea, at least one concentration tested

Compound: O=C(Nc1ccccc1-c1ccc(Cl)cc1)c1cccnc1Cl [Boscalid]
- Inhibition of conidial germination (Fusarium proliferatum; [4]): neither boscalid nor trifloxystrobin showed any inhibition and No
- Inhibition of conidial germination (Fusarium proliferatum; [5]): neither boscalid nor trifloxystrobin showed any inhibition and no inhibition and No

Compound: CC[C@H](C)C[C@H](C)CCCCCCCCC(=O)N[C@H]1C[C@@H](O)[C@@H](NCCN)NC(=O)[C@@H]2[C@@H](O)CCN2C(=O)[C@H]([C@H](O)CCN)NC(=O)[C@H]([C@H](O)[C@@H](O)c2ccc(O)cc2)NC(=O)[C@@H]2C[C@@H](O)CN2C(=O)[C@H]([C@@H](C)O)NC1=O [Caspofungin]
- inhibition at 1 µM (Botrytis (Strain B05.10); read-out: Percent Inhibition EXP23002534): 1.08%
- inhibition at 1 µM (Botrytis (Strain B05.10); [6]): 98.7%
- inhibition at 1 µM (Botrytis (Strain B05.10); [7]): 3.1%

Compound: Cc1cc(C2CC2)nc(Nc2ccccc2)n1 [Cyprodinil]
- inhibition at 50 µM (Botrytis (Strain B05.10); [6]): 73.6%
- inhibition at 50 µM (Botrytis (Strain B05.10); [7]): 53.7%
- inhibition at 100 µM (Botrytis (Strain B05.10); [7]): 74.8%

Compound: N#Cc1c[nH]cc1-c1cccc(Cl)c1Cl [Fenpiclonil]
- Inhibition of conidial germination (Fusarium proliferatum; [8]): did not inhibit conidial germination and No
- Inhibition of conidial germination (Fusarium proliferatum; tested alone at 10 uM, 24 hours at 23° C.): No
- Inhibition of conidial germination (Fusarium proliferatum; tested alone at 50 uM, 24 hours at 23° C.): Yes

Compound: N#Cc1c[nH]cc1-c1cccc2c1OC(F)(F)O2 [Fludioxonil]
- Inhibition of conidial germination (Fusarium proliferatum; [9]): did not show any inhibition and No
- Inhibition of conidial germination (Fusarium proliferatum; [4]): No
- Inhibition of conidial germination (Fusarium proliferatum; [5]): Yes

Compound: CC1(C)CCC(Cc2ccc(Cl)cc2)C1(O)Cn1cncn1 (stereo not shown) [Metconazole]
- Inhibition of conidial germination (Fusarium proliferatum; [9]): did not show any inhibition and No
- Inhibition of conidial germination (Fusarium proliferatum; [4]): No
- Inhibition of conidial germination (Fusarium proliferatum; [5]): inhibited fungal growth and Yes

Compound: C[C@@H]1C/C=C/C=C/C=C/C=C/[C@H](O[C@@H]2O[C@H](C)[C@@H](O)[C@H](N)[C@@H]2O)C[C@@H]2O[C@](O)(C[C@@H](O)C[C@H]3O[C@@H]3/C=C/C(=O)O1)C[C@H](O)[C@H]2C(=O)O [Natamycin]
- Inhibition of conidial germination (Fusarium proliferatum; [8]): did not show any inhibition
- Inhibition of conidial germination (Fusarium proliferatum; tested alone at 5 ug/ml, 24 hours at 23° C.): No
- Inhibition of conidial germination (Fusarium proliferatum; tested alone at 10 ug/ml, 24 hours at 23° C.): No
- Inhibition of conidial germination (Fusarium proliferatum; tested alone at 100 ug/ml, 24 hours at 23° C.): inhibited fungal growth and Yes
- inhibition at 100 µM (Botrytis (Strain B05.10); Table 20, tested alone at 100 μM (positive control), read-out: Percent Inhibition (Median)): 101%
- inhibition at 100 µM (Botrytis (Strain B05.10); tested alone at 100 μM (positive control 1), read-out: Percent Inhibition EXP23002534): 100%
- inhibition at 100 µM (Botrytis (Strain B05.10); tested alone at 100 μM (positive control 1), read-out: Percent Inhibition EXP23002594): 101%
- inhibition at 100 µM (Botrytis (Strain B05.10); tested alone at 100 μM, read-out: Percent Inhibition EXP23002662): 101%

Compound: CON=C(C(=O)OC)c1ccccc1CON=C(C)c1cccc(C(F)(F)F)c1 [Trifloxystrobin]
- Inhibition of conidial germination (Fusarium proliferatum; [4]): neither boscalid nor trifloxystrobin showed any inhibition and No
- Inhibition of conidial germination (Fusarium proliferatum; [5]): neither boscalid nor trifloxystrobin showed any inhibition and No

Compound: Drosomycin (DCLSGRYKGPCAVWDNETCRRVCKEEGRSSGHCSPSLKCWCEGC; disulfide (positions not given here); not fully specified; ends not checked; also: four intramolecular disulfide bridges, pairing not given here; UniProt P41964 27-70, looked up) [44-residue antifungal peptide with four intramolecular disulfide bridges, heterologously expressed in E. coli]
- Inhibition of conidial germination (Fusarium proliferatum; [10]): did not show any inhibition and No
- Inhibition of conidial germination (Fusarium proliferatum; [11]): did not show any inhibition and No
- Inhibition of conidial germination (Fusarium proliferatum; tested alone at 8 uM, 24 hours at 23° C.): Yes

Compound: RRRRRRRR [Pep462, Octaarginine (R8) cell-penetrating peptide (non-CGI peptide CONTROL)]
- Inhibition of conidial germination (Fusarium proliferatum; tested alone at 0.125 uM, 24 hours at 23° C.): No
- Inhibition of conidial germination (Fusarium proliferatum; [12]): No
- Inhibition of conidial germination (Fusarium proliferatum; [10]): No
- Inhibition of conidial germination (Fusarium proliferatum; [11]): effective and Yes
- Inhibition (reduced disease severity of leaf discs) ([1]; 20 micromolar): did not and No
- Summary of CGI factor spectrum of activity [1]: No
- Inhibition [2]: Yes
- Summary of CGI factor spectrum of activity [2]: Yes
- Inhibition [3]: Yes
- Summary of CGI factor spectrum of activity [3]: Yes
- Inhibition (Botrytis cinerea b05.10; [13]): inhibited and Yes
- Inhibition (Botrytis cinerea b05.10; [14]): inhibited and Yes
- Summary of CGI factor spectrum of activity (Botrytis cinerea b05.10; [15]): completely inhibited conidial germination and Yes

Compound: WCGRPGQPC (REGION 1..9: note = Botrytis spp.) [Pep106, B. cinerea Alpha-pheromone]
- Inhibition (Botrytis cinerea b05.10; [13]): No
- Inhibition (Botrytis cinerea b05.10; [14]): No
- Summary of CGI factor spectrum of activity (Botrytis cinerea b05.10; [15]): No

Compound: WCTWKGQPCW [Pep105]
- Inhibition of conidial germination (Fusarium proliferatum): No and Yes
- Inhibition (Botrytis cinerea b05.10): No
- Summary of CGI factor spectrum of activity (Botrytis cinerea b05.10): No

Compound: WHWLQLKPGQPMY (listed as Saccharomyces cerevisiae) [Pep107, S. cerevisiae Alpha-pheromone]
- Inhibition (reduced disease severity of leaf discs) ([1]; 200 micromolar): reduced the disease severity and Yes
- Summary of CGI factor spectrum of activity [1]: Yes
- Inhibition [2]: did not show any inhibition and No
- Summary of CGI factor spectrum of activity [2]: No
- Inhibition [3]: Yes
- Summary of CGI factor spectrum of activity [3]: Yes
- Inhibition (Botrytis cinerea b05.10; [13]): No
- Inhibition (Botrytis cinerea b05.10; [14]): moderate inhibition and Some
- Summary of CGI factor spectrum of activity (Botrytis cinerea b05.10; [15]): Yes

Compound: WHWLQLKPGQPMYGGGGWHWLQLKPGQPMY (listed as Saccharomyces cerevisiae) [Pep302, S. cerevisiae Alpha-pheromone homodimer with GGGG linker]
- Inhibition of conidial germination (Fusarium proliferatum; [12]): No
- Inhibition of conidial germination (Fusarium proliferatum; [10]): No
- Inhibition of conidial germination (Fusarium proliferatum; [11]): Yes

Compound: WHWLQLKPGQPMYWHWLQLKPGQPMY (listed as Saccharomyces cerevisiae) [Pep301, S. cerevisiae Alpha-pheromone homodimer]
- Inhibition of conidial germination (Fusarium proliferatum; [12]): No
- Inhibition of conidial germination (Fusarium proliferatum; [10]): No
- Inhibition of conidial germination (Fusarium proliferatum; [11]): Yes
- Inhibition (reduced disease severity of leaf discs) ([1]; 20 micromolar): reduced the disease severity and Yes
- Summary of CGI factor spectrum of activity [1]: Yes
- Inhibition [2]: Yes
- Summary of CGI factor spectrum of activity [2]: Yes
- Inhibition [3]: Yes
- Summary of CGI factor spectrum of activity [3]: Yes
- Inhibition (Botrytis cinerea b05.10; [13]): No
- Inhibition (Botrytis cinerea b05.10; [14]): active and Yes
- Summary of CGI factor spectrum of activity (Botrytis cinerea b05.10; [15]): completely inhibited conidial germination and Yes
